Data on five molecules can be found in patent US20240239801A1, “PYRIMIDO[5,4,D]PYRIMIDINE COMPOUNDS, COMPOSITIONS COMPRISING THEM AND USES THEREOF” (Université de Montréal, priority 2021, published 2024).

As usually defined, the EC50 is the concentration that produces a half-maximal response.

Common to all, as to assay: Proliferation inhibition, CellTiter-Glo
Holding throughout (assay type): cell-based, human

In one assay the test system is HCT116. The conditions noted are these: Table D-1, 3 days, read-out: HCT116 Prolif. EC50. How it is done:
(§1) All cancer cell lines (A375, A101D, A2058, RKO, HT29 SK-MEL 30, IPC298, HepG2, HCT-116, Lovo, SW620, SW480, NCI-H358, NCI-H2122, Calu-6, NCIH2087, NCIH1755, NCIH1666 and Mewo) were obtained from ATCC and cultured in RPMI-1640 medium (Gibco) supplemented with 5% heat inactivated fetal bovine serum (FBS, Wisent) at 37° C. under 5% CO2. Cells were maintained in T175 flasks (Greiner). They were passaged by removing the culture medium, washing once in 10 mL of room temperature Phosphate Buffered Saline (PBS; Wisent) and incubating at 37° C. with 2 mL of 0.05% Trypsin (Thermo-Fisher). Trypsin was then inactivated by adding complete growth medium and the cells were then replated in a T175 culture dish at the appropriate dilution. All cell lines were routinely tested for mycoplasma contamination. Tissue type and mutational status of each cell line can be found in Table B.
(§2) CellTiter-Glo® viability analysis was conducted on cells plated in […] of complete RPMI-1640 growth medium in 96-well flat-bottomed white opaque plates (Greiner or Corning) at a density indicated in Table E (for each CCL, number of cells plated per well of a 96-well plate to perform the CellTiter-Glo® cell viability assay). The cell density in cells/cm^2 would correspond to cell number divided by the area of one well of a 96-well plate (0.32 cm^2). Cells were maintained overnight at 37° C. under 5% CO2 before treatment with compounds' dilution series for 3 days.
(§3) In a dilution series 100 μL/well of test substance dilution prepared in complete RPMI-1640 growth media was added to the cells plated initially in 100 μL of growth media. The dilution series is selected so that ten concentrations cover a range from 30 μM or 10 μM to […]. If necessary (as in the case of A375 cells, which were more sensitive to the compounds) the initial concentration of 10 μM is lowered to 1 μM and further dilution is carried out accordingly. The final concentration of DMSO in the assay is set to 0.5%.
(§4) After 3 days of incubation, the growth media were removed by aspiration and 60 μL of diluted CellTiter-Glo® reagent (10 μL CellTiter-Glo® reagent+50 μL of PBS) was added to each well. Cells were allowed to lyse and to equilibrate in CellTiter-Glo® reagent by 5 min incubation on a plate shaker followed by 10 min incubation at room temperature. Luminescence signals were then acquired on a Synergy Neo2 plate reader (Biotek).
(§5) The effect of each compound dilution on the proliferation of cancer cell lines was expressed in % inhibition and calculated as follows. An internal 100% inhibition control (1 μM of trametinib; cat. No. HY-10999; MedChem Express; CAS No. 871700-17-3) was included in each plate and used as a measure of CellTiter-Glo® signal background. The value obtained for trametinib was subtracted from each data point. The average of DMSO (vehicle) controls (set as 0% inhibition) was established and used to calculate % inhibition:
(§6) The ability of each compound to inhibit proliferation was expressed as a EC50 value obtained by plotting the effect values for each data point of a dilution series and fitting the obtained curves using a log(agonist) versus response−variable slope (four parameters) function using GraphPadPrism (V7.0) or Dotmatics Screening Ultra platform.

The subject of another assay is A375. To be noted: Table D-1, 3 days, read-out: A375 Prolif. EC50. How it is done: as §1, §2, §3, §4, §5, §6
A further assay concerns SW480. To be noted: Table D-2, 3 days, read-out: SW480 Prolif. EC50. The procedure: as §1, §2, §3, §4, §5, §6
The next assay deals with SK-MEL30. The conditions noted are these: Table D-1, 3 days, read-out: SK-MEL30 Prolif. EC50. The procedure:
as §1, §2, §3, §4, §5, §6

A further assay has as its system NCIH2087. The conditions noted are these: Table D-2, 3 days, read-out: NCIH2087 Prolif. EC50. How it is done:
as §1, §2, §3, §4, §5, §6

For a further assay, the system named is Lovo. The conditions noted are these: Table D-2, 3 days, read-out: Lovo Prolif. EC50. How it is done:
as §1, §2, §3, §4, §5, §6

The test system of another assay is NCI-H2122. To be noted: Table D-2, 3 days, read-out: NCI-H2122 Prolif. EC50. The procedure:
as §1, §2, §3, §4, §5, §6

In a further assay the test system is HepG2. The conditions noted are these: Table D-1, 3 days, read-out: HepG2 Prolif. EC50. How it is done: as §1, §2, §3, §4, §5, §6
Another assay concerns NCIH1755. The conditions noted are these: Table D-2, 3 days, read-out: NCIH1755 Prolif. EC50. How it is done: as §1, §2, §3, §4, §5, §6
A further assay has as its system Calu6. To be noted: Table D-2, 3 days, read-out: Calu6 Prolif. EC50. How it is done:
as §1, §2, §3, §4, §5, §6

The test system of another assay is Mewo. The conditions noted are these: Table D-2, 3 days, read-out: Mewo Prolif. EC50. The procedure: as §1, §2, §3, §4, §5, §6
In a further assay the test system is A101D. The conditions noted are these: Table D-1, 3 days, read-out: A101D Prolif. EC50. How it is done: as §1, §2, §3, §4, §5, §6
In a further assay the test system is A2058. To be noted: Table D-1, 3 days, read-out: A2058 Prolif. EC50. The procedure:
as §1, §2, §3, §4, §5, §6

Molecules are shown by their SMILES. Where two headings read alike, the source gives them in different places.

Consider `Cc1ccc2c(Nc3cccc(Cl)c3F)nccc2c1NC(=O)c1csc2c(N)ncnc12` [Belvarafenib, reference compound], for which the EC50 in the assay on HCT116 (Homo sapiens, HCT-116, 72 h) is 0.3 to 3 µM; in the assay with A375 (Homo sapiens, A-375, 72 h) it was less than 0.3 µM; in the assay with SW480 (Homo sapiens, SW480, 72 h) it was 0.3 to 3 µM; with SK-MEL30 (Homo sapiens, SK-MEL-30, 72 h), less than 0.3 µM; in the assay on NCIH2087 (Homo sapiens, NCI-H2087, 72 h) it was less than 0.3 µM; in the assay on Lovo (Homo sapiens, LoVo, 72 h) it was less than 0.3 µM. The concentration for a half-maximal effect (EC50) in the assay on NCI-H2122 (Homo sapiens, NCI-H2122, 72 h) was 0.3 to 3 µM; in the assay with HepG2 (Homo sapiens, HepG2, 72 h), less than 0.3 µM; with NCIH1755 (Homo sapiens, NCI-H1755, 72 h), more than 3 µM; with Calu6 (Homo sapiens, Calu-6, 72 h) it was less than 0.3 µM; in the assay with Mewo (Homo sapiens, MeWo, 72 h), 0.3 to 3 µM.
In the case of `Cc1c(F)cccc1S(=O)(=O)Nc1ccc(F)c(Nc2ncnc3cnc(-n4cc(C(=O)N(C)Cc5ccncc5)c5ccccc54)nc23)c1F` [Example 98], the 50% effective concentration (EC50) was less than 0.3 µM in the assay with HCT116; less than 0.3 µM in the assay with A375; 0.3 to 3 µM in the assay on SW480; less than 0.3 µM in the assay on SK-MEL30; less than 0.3 µM in the assay on A101D; less than 0.3 µM in the assay with NCIH2087. Further, the concentration for a half-maximal effect (EC50) in the assay on Lovo was less than 0.3 µM; in the assay on NCI-H2122, 0.3 to 3 µM; with A2058 it was less than 0.3 µM; with HepG2 it was less than 0.3 µM; with NCIH1755, less than 0.3 µM; in the assay on Calu6, less than 0.3 µM. The EC50 in the assay on Mewo was less than 0.3 µM.
As to `COc1ccc(S(=O)(=O)Nc2ccc(F)c(Nc3ncnc4cnc(-n5cnc6c(N)cccc65)nc34)c2F)c(C)c1Cl` [Example 112], the concentration for a half-maximal effect (EC50) is 0.3 to 3 µM with HCT116; less than 0.3 µM in the assay with A375; 0.3 to 3 µM with SW480; less than 0.3 µM in the assay with SK-MEL30; less than 0.3 µM with A101D; 0.3 to 3 µM with NCIH2087. The EC50 in the assay on Lovo is less than 0.3 µM; in the assay with NCI-H2122, 0.3 to 3 µM; in the assay on A2058 it was less than 0.3 µM; with HepG2 it was less than 0.3 µM; in the assay with Calu6 it was 0.3 to 3 µM; in the assay with Mewo it was 0.3 to 3 µM.
`Cc1c(F)cccc1S(=O)(=O)Nc1ccc(F)c(Nc2ncnc3cnc(-n4cnc5c(-c6cccnc6)cccc54)nc23)c1F` [Example 114]: the EC50 in the assay on HCT116 (Homo sapiens, HCT-116, 72 h) is 0.3 to 3 µM; with A375 (Homo sapiens, A-375, 72 h), less than 0.3 µM; with SW480 (Homo sapiens, SW480, 72 h), more than 3 µM; with SK-MEL30 (Homo sapiens, SK-MEL-30, 72 h), 0.3 to 3 µM; in the assay on A101D (Homo sapiens, A101D, 72 h), less than 0.3 µM; in the assay with NCIH2087 (Homo sapiens, NCI-H2087, 72 h) it was 0.3 to 3 µM. Moreover, the EC50 in the assay with Lovo (Homo sapiens, LoVo, 72 h) is less than 0.3 µM; in the assay on NCI-H2122 (Homo sapiens, NCI-H2122, 72 h), more than 3 µM; with A2058 (Homo sapiens, A2058, 72 h) it was less than 0.3 µM; with HepG2 (Homo sapiens, HepG2, 72 h), less than 0.3 µM; in the assay on NCIH1755 (Homo sapiens, NCI-H1755, 72 h) it was more than 3 µM; in the assay with Calu6 (Homo sapiens, Calu-6, 72 h), more than 3 µM. The concentration giving a half-maximal response (EC50) in the assay with Mewo (Homo sapiens, MeWo, 72 h) was in the range of 0.3 to 3 µM.
On to `O=S(=O)(Nc1ccc(F)c(Nc2ncnc3cnc(-n4cnc5c(N6CCC7(CCCO7)CC6)cccc54)nc23)c1F)c1cccc(Cl)c1Cl` [Example 129], for which the EC50 was 0.3 to 3 µM in the assay on HCT116; less than 0.3 µM in the assay on A375; 0.3 to 3 µM in the assay on SW480; less than 0.3 µM in the assay with SK-MEL30; less than 0.3 µM with A101D; 0.3 to 3 µM in the assay on NCIH2087. The EC50 is less than 0.3 µM in the assay with Lovo; 0.3 to 3 µM with NCI-H2122; less than 0.3 µM in the assay on A2058; less than 0.3 µM in the assay on HepG2; 0.3 to 3 µM in the assay on NCIH1755; 0.3 to 3 µM with Calu6. The concentration giving a half-maximal response (EC50) in the assay with Mewo was less than 0.3 µM.
